Measurements as given in patent US8293274B2, “Intestinal absorptive anti-tumor agent” (Kabushiki Kaisha Sangi, priority 2005, dated 2012).
Counter-ions that a name gives are not always drawn.

Test: Intestinal absorption test of various antitumor agents (plasma concentration by gas/liquid chromatography)
Method: Rats were fasted for 16 hours and then forced oral administration to the stomach was performed using an oral gastric tube for rats.
Blood was collected from the tail vein prior to administration and 15 and 30 minutes, 1, 2, 3, 4, 6, 8 and 24 hours after administration. The collected blood was centrifuged at 4° C. for 15 minutes at 3,000 rpm to obtain plasma, and then the plasma concentrations of the various antitumor agents were measured.
These concentrations were measured using gas chromatography and liquid chromatography.

[1] = bleomycin hydrochloride in plasma, rats fasted 16 hours, oral, 2.0 mg/kg
[2] = male, Sprague-Dawley, rat, in vivo, po, 50 mg/kg
[3] = male, Sprague-Dawley, rat, in vivo, po, 0.2 mg/kg

Work on “bleomycin hydrochloride [Comparative Test Example 4-3]” yielded an AUC0-24 h [1] of 0.52 µg·h/mL, a Cmax [1] of 0.12 µg/mL and a Tmax [1] of 85.2 min.
Molecule O=P1(NCCCl)OCCCN1CCCl (stereo not drawn) [Comparative Test Example 4-2, ifosfamide] has an AUC(0-t) [2] of 1.24 µg·h/mL, a Cmax [2] of 0.25 µg/mL and a Tmax [2] of 45 min.
CC[C@]1(O)C[C@H]2CN(CCc3c([nH]c4ccccc34)[C@@](C(=O)OC)(c3cc4c(cc3OC)N(C=O)[C@H]3[C@@](O)(C(=O)OC)[C@H](OC(C)=O)[C@]5(CC)C=CCN6CC[C@]43[C@@H]65)C2)C1 [Comparative Test Example 4-4, vincristine sulfate] showed an AUC(0-t) [3] of 1.11 µg·h/mL, a Cmax [3] of 0.09 µg/mL and a Tmax [3] of 49.8 min.
